US6432973B1, “Water soluble rapamycin esters” (Wyeth, priority 2000, dated 2002)
Converted amounts (≈) assume the structure as drawn.

What was measured:
[1] = system: U87MG human glioblastoma cells; experiment: inhibition of U87MG human glioblastoma cell growth (3H-thymidine incorporation); format: cell-based; settings: U-87 MG, 48 hours incubation
Description: The antitumor activity of the compounds of this invention were confirmed in a standard pharmacological test procedure which measures the inhibition of U87MG human glioblastoma cell growth (as a function of ^3H-thymidine incorporation), using CCl-779-PEG 5000 ester (Compound III) and CCl-779-(PEG 5000)2 ester (Compound IV) as representative compounds of this invention. The following briefly describes the procedure used and results obtained. U87MG human glioblastoma cells (ATCC #HTB-14; available from the American Type Culture Collection; 10801 University Boulevard; Manassas, Va. 20110;), were grown in the following media.
Growth Medium: BRL Minimum Essential Medium with Earle Salts (500 mL)
+5 mL BRL MEM Non-Essential Amino Acids (10 mM)
+5 mL BRL Na Pyruvate Solution (100 mM)
+5 mL BRL L-Glutamine 200 mM
+50 mL BRL Fetal Bovine Serum (Qualified)
1. Cells were trypsinized and plated at a concentration of 10^4 cells/well in a final volume of 200 μL growth medium in 96-well flat bottom plates and allowed to adhere for 24 hours at 37° C.
2. The media was removed by aspiration with care to not disturb the cell monolayer. 200 μL of fresh growth media was added per well, allowing enough wells for samples to be run in triplicate. Test compounds were added in 10 μL phosphate buffer solution (PBS) and incubated for another 48 hours at 37° C.
3. […]
4. […] Mats were counted in a Wallac Betaplate counter.

water solubility = format: physicochemical
Text: Such doses may be administered in any manner useful in directing the active compounds herein to the recipient's bloodstream, including orally, via implants, parenterally (including intravenous, intraperitoneal and subcutaneous injections), rectally, intranasally, vaginally, and transdermally. […] This advantage is particularly important for oral and parenteral administration.

CO[C@H]1C[C@@H]2CC[C@@H](C)[C@@](O)(O2)C(=O)C(=O)N2CCCC[C@H]2C(=O)O[C@H]([C@H](C)C[C@@H]2CC[C@@H](OC(=O)C(C)(CO)CO)[C@H](OC)C2)CC(=O)[C@H](C)/C=C(\C)[C@@H](O)[C@@H](OC)C(=O)[C@H](C)C[C@H](C)/C=C/C=C/C=C/1C [CCI-779, rapamycin 42-ester with 3-hydroxy-2-(hydroxymethyl)-2-methylpropionic acid]
IC50 [1]: 0.6 ng/mL (≈ 0.582 nM) | solubility (water solubility): < 1.1 µg/mL
